Test results taken from PMC4552634, “A New Set of Chemical Starting Points with Plasmodium falciparum Transmission-Blocking Potential for Antimalarial Drug Discovery” (PLoS ONE, 2015).
Read-outs that look alike come from different tables or passages of the source.

Tests used:
[1] = test system: P. falciparum stage V gametocytes; assay: Gametocytocidal ATP bioluminescence assay (single point 5 μM and 1 μM, dose-response); type: cell-based, Plasmodium falciparum; conditions: for IC90: ATP assay, Fig 7, read-out: IC90 against gametocytes; for Ratio IC50 HepG2/IC50 P. falciparum: IC50 HepG2 divided by IC50 P. falciparum gametocytes
Description: Purified stage IV-V gametocytes were obtained as previously described [10]. Single point ATP bioluminescence assay and dose–response of positive hits was determined in accordance with the previously published protocol [10].

[2] = Cytotoxicity in HepG2 cells (intracellular ATP, ATPlite, 48 h); type: cell-based, human; conditions: human, HepG2 cells
[3] = test system: mature P. falciparum NF54 gametocytes (male gametocyte exflagellation); assay: Exflagellation assay; type: cell-based, Plasmodium falciparum; conditions: for % Exflagellation inh. at the IC90: 48 h, concentration = IC90, Fig 7; for % Inhibition exflagellation: 48 h post-treatment at the IC90 of the ATP assay, normalized to control, Fig 6
Description: The exflagellation assay was performed as described by Delves et al., with some modifications. Briefly, 200 μL samples of mature P. falciparum NF54 gametocytes culture in the presence of the corresponding test compound were incubated at 37°C for 48 h in an atmosphere of 5% CO2, 5% O2, 90% N2 in 1.5 mL microfuge tubes. After the incubation period, cells were settled down and medium was carefully removed. The cell pellets were resuspended in 15 μl of complete ookinete medium (RPMI medium with 25 mM HEPES, 50 mg/L hypoxanthine, 2 g/L sodium bicarbonate, 100 μM xanthurenic acid, 20% human serum) pre-warmed at 37°C. Once parasites were resuspended in ookinete medium, they were introduced in a chamber of a FastRead disposable hemocytometer slide and placed on a horizontal surface at room temperature (21°C), to allow cells to homogeneously settle, forming a tight monolayer.

[4] = test system: P. falciparum NF54 gametocytes fed to An. stephensi mosquitoes; assay: Standard membrane feeding assay (SMFA); type: in vivo, Plasmodium falciparum; conditions: for Infection Prevalence (%): An. stephensi fed gametocytes treated 48 h at the IC90, Fig 6, one of two independent experiments, control 94%; for % Prevalence of infection / % Reduction oocysts SMFA / Block in Transmission (%) / Reduction in Oocyst (%): gametocytes treated 48 h at the IC90; for % Prevalence of infection / % Reduction oocysts SMFA: Fig 7; for Block in Transmission (%) / Reduction in Oocyst (%): normalized to DMSO control, Fig 6; for Reduction in Oocyst (%): mean oocyst intensity
Description: Gametocyte cultures of the P. falciparum NF54 strain, kindly provided by Robert Sinden (Imperial College London), were induced at 0.5% asexual parasitemia and 4% hematocrit (RBCs from the Spanish Red Cross) at 40 mL final volume in T75 flasks. Gametocyte production media comprised RPMI 1640 (Sigma, #R5886), 30 mM bicarbonate (Sigma-Aldrich, #S5761) and 5 mM hypoxanthine (Gibco, #11067–030). Media were made complete with 5% human serum A^+ (Interstate Blood Bank, USA) and 5% AlbuMAX II (Gibco, #11021–037). Cultures were maintained in a gassed incubator at 37°C with 5% CO2, 5% O2, 90% N2 for 14–17 days post-induction, with daily medium replacement without the addition of fresh RBCs. Percentages of mature gametocytes were assessed by microscopic counts (Leica, DM2000) of Giemsa-stained thin blood smears, and functional microgametocytes were assessed for exflagellation activity at room temperature. To test exflagellation, mature gametocyte cultures were centrifuged at 1800 rpm for one minute. The infected RBC pellet was gently mixed with an equal volume of pre-warmed human serum and introduced onto a slide with a coverslip, followed by incubation at room temperature for 10–15 min. The average exflagellation centers per field at 10X magnification was determined by the exflagellation assay described above. Gametocyte counts and exflagellation assays were performed both before and after gametocyte drug treatment (at the time of SMFA).
Two days before gametocyte treatment with compound, spent media was removed and fresh Gametocyte Treatment Medium consisting of RPMI1640 with L-glutamine and 25 mM HEPES (Gibco, #13018–031), 10 mM glucose (Sigma-Aldrich, #G8270), 20 mM bicarbonate (Sigma-Aldrich, #S5761) and 5 mM hypoxanthine (Gibco, #11067) was added. Media were made complete with 10% of human A^+ serum (Interstate Blood Bank). Five ml of mature gametocyte culture at day 15 post-induction was transferred into each well of a pre-warmed 6-well plate. The selected TCAMS compounds were prepared fresh as a stock solution of 10 mM in 100% of DMSO and added to the mature gametocytes at the concentrations described in Fig 7. Gametocytes were exposed to the compound for a total duration of 48 h. At 24 h post-drug exposure, a fixed volume (3 mL) of spent medium was removed and fresh medium was re-added, accompanied by compound replenishment to obtain the required final concentration. Untreated gametocytes with the same final concentration of DMSO (0.1%) as in treated gametocytes were processed in parallel.
On the day of the feed, cultures were centrifuged at 2500 g for 3 min at 37°C, diluted 1:1 with 100% packed cell volume of fresh RBCs, and finally formulated as artificial mosquito blood meals at 50% hematocrit with pre-warmed human serum. All steps were performed at 37°C. Prepared blood meals were fed in duplicate to 4–6 days old female An. stephensi mosquitoes for 30–40 min via Parafilm membrane attached to glass feeders (Fisher Scientific, #12831283) connected to a 37°C circulating water bath. Fed mosquitoes were maintained in an incubator at 27°C and 75% relative humidity with 12 h light/dark cycles. At 7–8 days post-feeding, mosquitoes with fully developed ovaries were dissected for midguts (Leica, M80) and incubated in 0.2% mercurochrome solution in distilled water for 10–15 min. The total number of oocysts in individual midguts was counted using a light microscope (Leica, DM2000) under a 10X objective (100X magnification). Both infection prevalence (percentage of mosquitoes with one or more oocysts) and mean oocyst intensity of infection were defined in each treatment. The percentage block in transmission and the percentage reduction in mean oocyst intensity were calculated after normalizing to the Control DMSO-treated sample.

[5] = test system: P. falciparum asexual stages; conditions: cited from earlier work
[6] = test system: luciferase reaction (BacTiter-Glo); assay: Interference assay (inhibition of the BacTiter-Glo luciferase reaction); type: biochemical; parameters: concentration or dose not given beside the values; conditions: ATP interference assay
Description: To discard possible false-positive results, we performed an interference assay in parallel. […] […]. The ATP solution was made by dissolving ATP powder (ATP standard from the ATPlite 1 step assay kit, reference 6016731, Perkin Elmer) in culture medium. The positive control used was the Luciferase Inhibitor I Calbiochem (Merck, 119113) at 100 μM.

HepG2 cells = assay: Cytotoxicity in HepG2 cells (intracellular ATP, ATPlite, 48 h); type: cell-based, human; conditions: for Ratio IC50 HepG2/IC50 P. falciparum: IC50 HepG2 divided by IC50 P. falciparum gametocytes
[7] = test system: P. falciparum stage V gametocytes; assay: microbe, parasite or virus in culture; parameters: BacTiter-Glo ATP luminescence viability of stage V gametocytes, 11-point dose-response IC50; conditions: Plasmodium falciparum, 48 h; sheet CSAanalogstable
Description: Once purified, gametocytes were counted using a Neubauer chamber, and the density was adjusted to 2.5 x 10^5 gametocytes/mL. Fifty μL of the gametocyte suspension (1.25 x 10^4 gametocytes) were added to each well of the 384-well plate containing the compounds, using a Multidrop combi (Thermo Electron Corporation). Plates were shaken for 5 sec to homogenize and then incubated at 37°C for 48 h in an atmosphere of 5% CO2, 5% O2, 90% N2. The ATP level of each well was determined using the BacTiter-Glo reagent (Promega) according to the recommendations of the manufacturer. The BacTiter-Glo assay generates a ‘glow-type’ luminescent signal produced by the luciferase reaction, which consists of mono-oxygenation of luciferin catalyzed by luciferase in the presence of Mg^2+, ATP and molecular oxygen. The luminescence was measured using a plate reader (Victor V, Perkin Elmer). […] The background value was subtracted from every other value of the assay prior to further calculation. The average of 16 replicates of vehicle control (0.5% or 0.1% DMSO) represents 100% of signal. Related to this value, each test concentration was calculated as percentage of control. […] However, there was no significant correlation between compound IC50 values obtained against gametocytes and the inhibition of growth of P. falciparum asexual forms as previously determined for TCAMS [6] […]

[8] = Plasmodium falciparum, sexual stages (gametocytes), dose-response, read-out: IC50 sexual
[9] = HepG2, 48 h exposure, intracellular ATP, read-out: IC50 (μM) Cytotoxicity HepG2
[10] = IC50 per ratio column head, unit inferred, read-out: Cytotoxicity in HepG2
[11] = P. falciparum asexual stages, TCAMS data, read-out: IC50 (µM) Pf asexual stages
[12] = asexual stages, TCAMS data, read-out: IC50 asexual
[13] = Plasmodium falciparum, P. falciparum gametocytes, average, read-out: IC50 Pf Gametocytes average, IC50 (µM) average

Row | SMILES | IC90 ([1]; Plasmodium falciparum) [nM] | IC50 [1, 8] [µM] | IC50 at 48 h [2, 9] [µM] | IC50 at 48 h [2, 10] [µM] | % Exflagellation inh. at the IC90 [3] [%] | Infection Prevalence (%) [4] [%] | % Prevalence of infection [4] [%] | % Reduction oocysts SMFA [4] [%] | Block in Transmission (%) [4] [%] | Reduction in Oocyst (%) [4] [%] | IC50 [5, 11] [µM] | IC50 [5, 12] [µM] | IC50 [1, 13] [µM] | % Inhibition exflagellation [3] [%] | Ratio IC50 HepG2/IC50 P. falciparum [1] | % Control luminiscence [6] [%] | Ratio IC50 HepG2/IC50 P. falciparum (HepG2 cells) | other results
1 | CCC1CN2CCc3cc(OC)c(OC)cc3C2CC1CC1NCCc2cc(OC)c(OC)cc21 (centres unmarked) [TCMDC-125849] | 2000 | 0.117 | 18 | 17.7 | 99.2 | 3 | 3 | 100 | 97 | 100 | 0.14 | 0.145 |  |  |  |  |  | 
2 | CNC(=S)NN=C(C)c1ccccn1 [TCMDC-123475] | 10000 |  |  | > 25 | 97.7 | 0 | 0 | 100 | 100 | 100 | 0.27 | 0.272 | 1.17 | 97.7 |  |  |  | 
3 | COc1cccc(NC(=O)[C@H](C(C)C)n2c(=O)[nH]c3ccccc3c2=O)c1 [TCMDC-125133] | 2500 | 0.538 | > 25 | > 50 | 88 | 3 | 3 | 100 | 97 | 100 | 0.27 | 0.266 | 0.54 | 88.00 | >93 | 100 | >93 | 
4 | Cc1c(Cl)cccc1NC(=S)NN=Cc1ccccn1 [TCMDC-125487] | 2000 |  |  | > 25 | 98.3 | 0 | 1 | 100 | 100 | 100 | 0.6 | 0.603 | 0.27 | 98.30 |  |  |  | 
5 | N=C(NCCCc1ccccc1)c1cccc(C(=N)NCCCc2ccccc2)n1 [TCMDC-137453] | 2000 | 0.313 | 13 | 12.8 | 97.3 | 5 | 5 | 100 | 95 | 100 | 1.38 | 1.38 | 0.31 |  | 41 | 100 | 41 | 
6 | CC(C)c1ccc(NC(=S)NN=Cc2ccccn2)cc1 [TCMDC-125520] |  |  | 13 | 12.8 |  |  |  |  |  |  | 0.72 | 0.724 | < 0.0098 |  | >1306 |  | >1306 | IC50 [7]: 9.8 nM
7 | CCC1=C(C[C@H]2NCCc3cc(OC)c(OC)cc32)C[C@H]2c3cc(OC)c(OC)cc3CCN2C1 [TCMDC-131825] |  |  |  |  |  |  |  |  |  |  | 0.31 | 0.312 |  |  | >83 |  | >83 | IC50 ([1]; P. falciparum gametocytes, average, read-out: IC50 Pf Gametocytes average, IC50 (µM) average): 0.3 µM; IC50 (HepG2 cells; HepG2 cells, IC50 per ratio column head, unit inferred): > 25000 nM; IC50 [7]: 300 nM
8 | Cc1[nH]c2ccccc2c1C(=O)C(C)Sc1nnc(-c2ccccc2Br)[nH]1 (centres unmarked) [TCMDC-125114] | 2500 |  | > 25 | 49.3 | 97 | 2 | 2 | 100 | 98 | 100 | 0.0348 | 0.035 | 0.67 | 97.00 | 74 | 99 | 74 | IC50 ([5]; as previously determined for TCAMS, read-out: IC50 (μM) Pf Asexual stages): 0.03 µM
